Measurements: patent US6696495B2, “Treatment of disorders secondary to organic impairments” (Snowden Pharmaceuticals, LLC, priority 1998, dated 2004)
Where two headings read alike, the source gives them in different places.

Legend:
[1] = tested on: Severe Atypical Psychosis; experiment: Case history 1, Sibutramine Patient No. 97; type: in vivo, human; settings: sibutramine 10 mg orally three times a day, added to carbamazepine, quetiapine, valproic acid; person
[2] = tested on: Severe Post-Traumatic Stress Reaction
Description: Finally, this patient was taken off of fluoxetine 20 mg when sibutramine treatment was initiated.

[3] = tested on: Intracerebral Porencephalic Cyst With Oscillopsia; experiment: Case history 14, Sibutramine Patient No. 111; type: in vivo, human
Excerpt: 14. Intracerebral Porencephalic Cyst With Oscillopsia (Problem No. 5) Sibutramine Patient No. 111
A person suffered a severe head injury in 1976 with a fractured skull, coma, and an intracerebral (porencephalic) cyst caused by the traumatic blockage of their cerebral spinal fluid in their brain. This cyst was repaired surgically with a brain ventricular—jugular vein shunt. This had permitted them to work continuously with concomitant treatment with carbamazepine, valproic acid, and dextroamphetamine until early 1998 when they began to suffer severe attacks of bizarrely altered vision, dizziness, ataxia, and confusion. The attacks progressed to several times per week, lasting 4-24 hours in duration. […] There is no known treatment for these attacks and they were therefore unable to drive or work safely. They were placed on total disability. They were started on 10 mg of sibutramine as needed for these oscillopsia attacks. […] After 2 months at the 5 mg tid dosage, the patient again noted a recurrence of oscillopsia on a 2-3 times weekly basis.

[4] = tested on: ADHD Refractory to Other Treatments; type: in vivo, human; settings: sibutramine 10 mg every morning by mouth; person
Description: 16. ADHD Refractory to Other Treatments (Problem No. 6) Sibutramine Patient No. 16
The amphetamines made their nervous, jittery, and unable to sleep. […] They were started on sibutramine 10 mg every morning by mouth. […] After the first month, their dose was changed to 5 mg three times daily due to a five hour duration of effects.

[5] = tested on: Gulf War Syndrome (GWS); experiment: Case history 19; type: in vivo, human; settings: 10 mg. b.i.d. of sibutramine; veteran
[6] = tested on: Sick Building Syndrome (SBS); experiment: Case history 20; type: in vivo, human; settings: sibutramine 5 mg. t.i.d. Person
Excerpt: 20. Sick Building Syndrome (SBS)
This person began to note an increasing fatigue, poor concentration, rash, and wheezing which they related to exposure to unknown foreigns in the large building in which they worked. They also noted that more than 40 other employees had similar symptoms. […] They were then forced to leave their job in this building with a gradual relief of all symptoms over the next several weeks.

[7] = tested on: Heroin Craving and Abuse; type: in vivo, human
Excerpt: 21. Relief of Heroin Craving and Abuse (Problem No. 12) Sibutramine Patient No. 165
A single person was introduced to heroin by snorting when they were particularly stressed with the anger and pain of losing a boyfriend. They had always had difficulty recovering from pain, anger and loss but the heroin rapidly made them feel “normal”. They quickly moved to the intravenous route and reached a maximum intake of 5 bags per day (approximately $100/day in cost) for the next 6 months when they were discovered to have charged large amounts on their charge cards. They were then hospitalized in a drug detoxification hospital for three weeks but soon relapsed after discharge. After their second round of treatment they were referred to the care of a psychiatrist (the inventor herein). The patient described constant, unrelenting cravings for heroin and expressed that it would be “next to impossible” to remain free of the drug for any length of time. […] Out of desperation, the dose was increased to 15 mg in the AM and within an hour they noted a marked change. […] They now felt the “normal” feeling that heroin had given them and no longer noted any anger, hurt or distress.
They gained 15 pounds the first 2 weeks on the 15 mg of sibutramine in the morning. This was partially relieved by adding a 5 mg dose of sibutramine in the afternoon. This effect on the heroin craving and hurt is therefore clearly separate from the FDA-approved anorexic effect of sibutramine. […] They are now working at two jobs to pay their back debts.

[8] = tested on: Institutionalization Syndrome; experiment: Case history 25; type: in vivo, human
Excerpt: 25. The Symptoms Due to Institutionalization Syndrome, Also Known As Concentration Camp Syndrome or Survivors Syndrome.
A person was diagnosed with Institutionalization Syndrome and had been in and out of hospitals for 25 years.

CC(C)CC(N(C)C)C1(c2ccc(Cl)cc2)CCC1.Cl (stereo not shown) [sibutramine, N,N-dimethyl-1-[1-(4-chlorophenyl)cyclobutyl]-3-methylbutylamine hydrochloride]
hallucinations, confusion, paranoia, and anxiety [1]: marked decrease in hallucinations, confusion, paranoia, and anxiety | depression ([2]; human, in vivo): became severely depressed despite the relief from PTSD | PTSD symptoms and sedation at lower dosage ([2]; less than 1 mg once a day): provided relief again from their PTSD symptoms but without the sedation | side effects ([2]; one-half of the smallest capsule (5 mg), deficiency in P-450 cytochrome system enzymes): produced drowsiness, sugar craving, and weight gain | PTSD reaction to thunder ([2]; sibutramine 10 mg in the morning, person): completely oblivious of their former psychotic fear of thunder | symptoms after sibutramine was stopped ([2]; stopped after one and a half months): rapid return of the fear of thunder, sound and light sensitivity, exaggerated startle reflex, headaches, and nightmares of life and death situations | oscillopsia attacks ([3]; 10 mg of sibutramine as needed, person): appeared to help | recurrence of oscillopsia ([3]; after 2 months at 5 mg tid): 2-3 times weekly | oscillopsia attacks in the next four weeks ([3]; sibutramine 5 mg three times daily): only one such attack | oscillopsia attacks ([3]; sibutramine 10 mg tid): absence of attacks | effect on ADHD [4]: a calming and an alerting effect | pain, cognitive problems, confusion [5]: rapidly repaired their pain, cognitive problems, and confusion | cognitive, fatigue and allergic symptoms [6]: rapid relief of the cognitive and fatigue symptoms, but no relief from the allergic symptomatology | “nodding out” side effects ([7]; compared with heroin): none of the negative “nodding out” side effects | weight gain ([7]; first 2 weeks on 15 mg in the morning): 15 pounds | anger, hurt and narcotic craving ([7]; sibutramine 5 mg tid po, person): no relief from their anger and hurt nor from their narcotic craving | anger, hurt and narcotic craving ([7]; sibutramine 15 mg in the AM): a complete relief | duration of effect ([7]; sibutramine 15 mg in the AM): extended for the whole day | time to marked change ([7]; sibutramine 15 mg in the AM): an hour | side effects ([7]; sibutramine 15 mg in the morning): a dry mouth and a craving for food | course since treatment began ([8]; four months): continued improvement of their symptoms | symptoms of Institutionalization Syndrome ([8]; sibutramine 15 mg once a day): relieved their symptoms within a few minutes
